In patent US20240270762A1, “PENICILLIN-BINDING PROTEIN INHIBITORS” (priority 2021, published 2024):
In brackets after ≈: the same amount, converted by molar mass.

Assays:
E. coli AG100 = test: microbe, parasite or virus in culture; type: cell-based; details: Escherichia coli, AG100, read-out: MIC E. coli AG100
A. baumannii ATCC 19606 = test: microbe, parasite or virus in culture; type: cell-based; details: Acinetobacter baumannii, ATCC19606, read-out: MIC, A. baumannii ATCC 19606
E. coli D22 = test: microbe, parasite or virus in culture; type: cell-based; details: Escherichia coli, D22, read-out: MIC E. coli D22
P. aeruginosa ATCC 35151 = test: microbe, parasite or virus in culture; type: cell-based; details: Pseudomonas aeruginosa, ATCC35151, read-out: MIC P. aeruginosa ATCC 35151
K. pneumoniae 848844 = test: microbe, parasite or virus in culture; type: cell-based; details: Klebsiella pneumoniae, 848844, read-out: MIC K. pneumoniae 848844
E. coli ATCC 25922 = test: microbe, parasite or virus in culture; type: cell-based; details: Escherichia coli, ATCC25922, read-out: MIC E. coli 25922
K. pneumoniae SI-117 = test: microbe, parasite or virus in culture; type: cell-based; details: Klebsiella pneumoniae, SI117, read-out: MIC K. pneumoniae SI-117
P. aeruginosa ATCC 27853 = test: microbe, parasite or virus in culture; type: cell-based; details: Pseudomonas aeruginosa, ATCC27853, read-out: MIC P. aeruginosa ATCC 27853
[1] = test system: P. aeruginosa (ΔmexAB-oprM); test: Broth microdilution MIC in CAMHB; type: cell-based; details: Pseudomonas aeruginosa; read-out: MIC P. aeruginosa ΔmexAB-oprM
K. pneumoniae UMM = test: microbe, parasite or virus in culture; type: cell-based; details: Klebsiella pneumoniae, read-out: MIC K. pneumoniae UMM
N. gonorrhoeae WHO K = test: Liquid broth MIC in Fastidious broth; details: Neisseria gonorrhoeae, read-out: Minimum Inhibitory Concentration (MIC), N. gonorrhoeae WHO K
Experimental: Liquid broth-based assays were used for antibacterial testing of PBP inhibitors in Neisseria gonorrhoeae. Briefly, cryo-preserved bacterial cultures of clinical strains were streaked for isolation on Chocolate Agar (72 g/L (2×) GC Agar Base (BD #228950) and 2% (2×) Hemoglobin was autoclaved at 121° C. for 20 minutes to sterilize. Once cooled to ˜50° C. the 2×GC Agar Base and 2× Hemoglobin solutions are combined and 1% IsoVitaleX Enrichment (BD #211876) was added to the solution). Strains were incubated at 36° C. and 5% CO2 to allow growth of colonies, 24 hours before inoculum preparation. 2-fold serial dilutions of test compounds were conducted in a 96 well plate with a final volume of 75 μL per well at 2-fold the final desired concentration in Fastidious broth (Remel #R07664). For preparation of assay inoculum, a direct suspension was prepared by aseptically swabbing 10-15 colonies from agar plates into culture tubes containing 2 mL of fresh sterile saline. After the dilution plates were set up, direct suspensions were then diluted in a cuvette containing sterile saline and the optical density was measured at 600 nm. Inocula were diluted such that 75 μL of this culture in Fastidious broth results in a starting bacterial concentration of 5×10^5 CFU/mL when added to the dilution plates. The plates were incubated for ˜24 hours at 36° C. and 5% CO2.

E. coli 901C = test: microbe, parasite or virus in culture; type: cell-based; details: Escherichia coli, read-out: MIC E. coli 901C
N. gonorrhoeae MS11 = test: Liquid broth MIC in Fastidious broth; details: Neisseria gonorrhoeae, MS11, read-out: Minimum Inhibitory Concentration (MIC), N. gonorrhoeae MS11
N. gonorrhoeae WHO M = test: Liquid broth MIC in Fastidious broth; details: Neisseria gonorrhoeae, read-out: Minimum Inhibitory Concentration (MIC), N. gonorrhoeae WHO M
N. gonorrhoeae WHO X = test: Liquid broth MIC in Fastidious broth; details: Neisseria gonorrhoeae, read-out: Minimum Inhibitory Concentration (MIC), N. gonorrhoeae WHO X
N. gonorrhoeae FA1090 = test: Liquid broth MIC in Fastidious broth; details: Neisseria gonorrhoeae, FA1090, read-out: Minimum Inhibitory Concentration (MIC), N. gonorrhoeae FA 1090
N. gonorrhoeae WHO Z = test: Liquid broth MIC in Fastidious broth; details: Neisseria gonorrhoeae, read-out: Minimum Inhibitory Concentration (MIC), N. gonorrhoeae WHO Z

Row | Compound | MIC (E. coli AG100) | MIC (A. baumannii ATCC 19606) | MIC (E. coli D22) | MIC (P. aeruginosa ATCC 35151) | MIC (K. pneumoniae 848844) | MIC (E. coli ATCC 25922) | MIC (K. pneumoniae SI-117) | MIC (P. aeruginosa ATCC 27853) | MIC [1] | MIC (K. pneumoniae UMM) | MIC (N. gonorrhoeae WHO K) | MIC (E. coli 901C) | MIC (N. gonorrhoeae MS11) | MIC (N. gonorrhoeae WHO M) | MIC (N. gonorrhoeae WHO X) | MIC (N. gonorrhoeae FA1090) | MIC (N. gonorrhoeae WHO Z)
1 | CC(=O)N1CCC[C@H]1C(=O)NC(C(=O)N[C@H]1Cc2cccc(C(=O)O)c2OB1O)c1ccc(P(=O)(O)O)cc1 (stereo partly drawn) [Example 65, (3R)-3-(2-((S)-1-acetylpyrrolidine-2-carboxamido)-2-(4-phosphonophenyl)acetamido)-2-hydroxy-3,4-dihydro-2H-benzo[e][1,2]oxaborinine-8-carboxylic acid] | > 128 µg/mL | > 128 µg/mL | > 128 µg/mL | 8 to 16 µg/mL (≈ 14.3 to 28.6 µM) | > 128 µg/mL | > 128 µg/mL | > 128 µg/mL | > 128 µg/mL | > 128 µg/mL | > 128 µg/mL | 16 to 32 µg/mL (≈ 28.6 to 57.2 µM) | 32 to 64 µg/mL (≈ 57.2 to 114 µM) | 16 to 32 µg/mL (≈ 28.6 to 57.2 µM) | 4 to 8 µg/mL (≈ 7.15 to 14.3 µM) | 16 to 32 µg/mL (≈ 28.6 to 57.2 µM) | 4 to 8 µg/mL (≈ 7.15 to 14.3 µM) | 16 to 32 µg/mL (≈ 28.6 to 57.2 µM)
2 | O=C(O)c1cccc2c1OB(O)[C@@H](NC(=O)C(NC(=O)c1cnc[nH]c1=O)c1ccc(P(=O)(O)O)cc1)C2 (stereo partly drawn) [Example 176, (3R)-2-hydroxy-3-(2-(6-oxo-1,6-dihydropyrimidine-5-carboxamido)-2-(4-phosphonophenyl)acetamido)-3,4-dihydro-2H-benzo[e][1,2]oxaborinine-8-carboxylic acid] | > 128 µg/mL | > 128 µg/mL | > 128 µg/mL | 2 to 4 µg/mL (≈ 3.69 to 7.38 µM) | > 128 µg/mL | > 128 µg/mL | > 128 µg/mL | 32 to 64 µg/mL (≈ 59 to 118 µM) | 32 to 64 µg/mL (≈ 59 to 118 µM) | > 128 µg/mL | 16 to 32 µg/mL (≈ 29.5 to 59 µM) | 8 to 16 µg/mL (≈ 14.8 to 29.5 µM) | 4 to 8 µg/mL (≈ 7.38 to 14.8 µM) | 1 to 2 µg/mL (≈ 1.84 to 3.69 µM) | 16 to 32 µg/mL (≈ 29.5 to 59 µM) | 1 to 2 µg/mL (≈ 1.84 to 3.69 µM) | 16 to 32 µg/mL (≈ 29.5 to 59 µM)
3 | O=C(O)c1cccc2c1OB(O)[C@@H](NC(=O)[C@@H](NC(=O)c1cccn(C(F)F)c1=O)c1ccc(P(=O)(O)O)cc1)C2 (single isomer, unassigned) [Example 190] | > 128 µg/mL | > 128 µg/mL | 32 to 64 µg/mL (≈ 54.1 to 108 µM) | 2 to 4 µg/mL (≈ 3.38 to 6.77 µM) | > 128 µg/mL | > 128 µg/mL | > 128 µg/mL | > 128 µg/mL | 32 to 64 µg/mL (≈ 54.1 to 108 µM) | > 128 µg/mL | 16 to 32 µg/mL (≈ 27.1 to 54.1 µM) | 2 to 4 µg/mL (≈ 3.38 to 6.77 µM) | 4 to 8 µg/mL (≈ 6.77 to 13.5 µM) | 1 to 2 µg/mL (≈ 1.69 to 3.38 µM) | 16 to 32 µg/mL (≈ 27.1 to 54.1 µM) | < 1 µg/mL | 4 to 8 µg/mL (≈ 6.77 to 13.5 µM)
4 | O=C(O)c1cccc2c1OB(O)[C@@H](NC(=O)C(NC(=O)[C@H]1CCCN1)c1ccc(P(=O)(O)O)cc1)C2 (stereo partly drawn) [Example 52, (3R)-2-hydroxy-3-(2-(4-phosphonophenyl)-2-((R)-pyrrolidine-2-carboxamido)acetamido)-3,4-dihydro-2H-benzo[e][1,2]oxaborinine-8-carboxylic acid] | > 128 µg/mL | > 128 µg/mL | 32 to 64 µg/mL (≈ 61.9 to 124 µM) | 8 to 16 µg/mL (≈ 15.5 to 30.9 µM) | > 128 µg/mL | > 128 µg/mL | 32 to 64 µg/mL (≈ 61.9 to 124 µM) | > 128 µg/mL | > 128 µg/mL | 32 to 64 µg/mL (≈ 61.9 to 124 µM) | 16 to 32 µg/mL (≈ 30.9 to 61.9 µM) | 32 to 64 µg/mL (≈ 61.9 to 124 µM) | 16 to 32 µg/mL (≈ 30.9 to 61.9 µM) | 16 to 32 µg/mL (≈ 30.9 to 61.9 µM) | 16 to 32 µg/mL (≈ 30.9 to 61.9 µM) | 16 to 32 µg/mL (≈ 30.9 to 61.9 µM) | 16 to 32 µg/mL (≈ 30.9 to 61.9 µM)
5 | CCN1CCN(C(=O)N[C@H](C(=O)N[C@H]2Cc3ccc(F)c(C(=O)O)c3OB2O)c2ccc(P(=O)(O)O)cc2)C(=O)C1=O (single isomer, unassigned) [Example 9] | > 128 µg/mL | > 128 µg/mL | 32 to 64 µg/mL (≈ 52.8 to 106 µM) | 8 to 16 µg/mL (≈ 13.2 to 26.4 µM) | > 128 µg/mL | > 128 µg/mL | > 128 µg/mL | > 128 µg/mL | > 128 µg/mL | > 128 µg/mL | 1 to 2 µg/mL (≈ 1.65 to 3.3 µM) | 2 to 4 µg/mL (≈ 3.3 to 6.6 µM) | 1 to 2 µg/mL (≈ 1.65 to 3.3 µM) | < 1 µg/mL | 1 to 2 µg/mL (≈ 1.65 to 3.3 µM) | < 1 µg/mL | < 1 µg/mL
6 | O=C1CC[C@@H](C(=O)NC(C(=O)N[C@H]2Cc3cccc(C(=O)O)c3OB2O)c2ccc(P(=O)(O)O)cc2)N1 (stereo partly drawn) [Example 64, (3R)-2-hydroxy-3-(2-((S)-5-oxopyrrolidine-2-carboxamido)-2-(4-phosphonophenyl)acetamido)-3,4-dihydro-2H-benzo[e][1,2]oxaborinine-8-carboxylic acid] | > 128 µg/mL | > 128 µg/mL | 32 to 64 µg/mL (≈ 60.2 to 120 µM) | 8 to 16 µg/mL (≈ 15.1 to 30.1 µM) | > 128 µg/mL | > 128 µg/mL | > 128 µg/mL | > 128 µg/mL | > 128 µg/mL | > 128 µg/mL | 16 to 32 µg/mL (≈ 30.1 to 60.2 µM) | 8 to 16 µg/mL (≈ 15.1 to 30.1 µM) | 4 to 8 µg/mL (≈ 7.53 to 15.1 µM) | 1 to 2 µg/mL (≈ 1.88 to 3.76 µM) | 16 to 32 µg/mL (≈ 30.1 to 60.2 µM) | 4 to 8 µg/mL (≈ 7.53 to 15.1 µM) | 4 to 8 µg/mL (≈ 7.53 to 15.1 µM)
7 | CS(=O)(=O)NC(C(=O)N[C@H]1Cc2cccc(C(=O)O)c2OB1O)c1ccc(P(=O)(O)O)cc1 (stereo partly drawn) [Example 59, (3R)-2-hydroxy-3-(2-(methylsulfonamido)-2-(4-phosphonophenyl)acetamido)-3,4-dihydro-2H-benzo[e][1,2]oxaborinine-8-carboxylic acid] | > 128 µg/mL | > 128 µg/mL | > 128 µg/mL | 32 to 64 µg/mL (≈ 64.2 to 128 µM) | > 128 µg/mL | > 128 µg/mL | > 128 µg/mL | > 128 µg/mL | > 128 µg/mL | > 128 µg/mL | 16 to 32 µg/mL (≈ 32.1 to 64.2 µM) | 32 to 64 µg/mL (≈ 64.2 to 128 µM) | 16 to 32 µg/mL (≈ 32.1 to 64.2 µM) | 4 to 8 µg/mL (≈ 8.03 to 16.1 µM) | 16 to 32 µg/mL (≈ 32.1 to 64.2 µM) | 16 to 32 µg/mL (≈ 32.1 to 64.2 µM) | 16 to 32 µg/mL (≈ 32.1 to 64.2 µM)
8 | O=C(O)c1cccc2c1OB(O)[C@@H](NC(=O)C(NS(=O)(=O)C1CC1)c1ccc(P(=O)(O)O)cc1)C2 (stereo partly drawn) [Example 61, (3R)-3-(2-(cyclopropanesulfonamido)-2-(4-phosphonophenyl)acetamido)-2-hydroxy-3,4-dihydro-2H-benzo[e][1,2]oxaborinine-8-carboxylic acid] | > 128 µg/mL | > 128 µg/mL | > 128 µg/mL | 32 to 64 µg/mL (≈ 61 to 122 µM) | > 128 µg/mL | > 128 µg/mL | > 128 µg/mL | > 128 µg/mL | > 128 µg/mL | > 128 µg/mL | 16 to 32 µg/mL (≈ 30.5 to 61 µM) | 32 to 64 µg/mL (≈ 61 to 122 µM) | 16 to 32 µg/mL (≈ 30.5 to 61 µM) | 16 to 32 µg/mL (≈ 30.5 to 61 µM) | 16 to 32 µg/mL (≈ 30.5 to 61 µM) | 16 to 32 µg/mL (≈ 30.5 to 61 µM) | 16 to 32 µg/mL (≈ 30.5 to 61 µM)
